Tests used:
skin allografts = assay: Skin allograft survival (SJL/J skin on (BALB/c×C57BL/6)F1 mice); type: in vivo; conditions: 0.05 mg/kg daily
Experimental: FIG. 1. Treatment with heparin (0.05 mg/kg) prevents rejection of skin allografts. Mice of hybrid strain (BALB/c×C57BL/6)F1 were grafted with skin from allogeneic SJL/J mice. The mice (20 per group) were treated daily with subcutaneous injections of saline (squares) or with heparin ("Leo", 0.05 mg/kg; diamonds) and scored for skin graft survival. Median survival for the control group was 10 days while that for the heparin treated group was 24 days.
FIG. 2. Treatment with N-desulfated, N-acetylated heparin (10 mg/kg) prevents rejection of skin allografts. Mice were grafted as described for FIG. 1 and treated daily with saline (squares) or N-desulfated, N-acetylated heparin (10 mg/kg; diamonds). The median survival of the skin allograft in the control group was 10 days while that in the treated group was 20 days.
The median survival time of the skin grafts on control mice treated with saline was […] while that on mice treated with 0.05 mg/kg daily of heparin was 26 days with maximal survival to 32 days.

adjuvant arthritis [1] = assay: Adjuvant arthritis induced with M. tuberculosis; type: in vivo, Lewis rats; conditions: for Adjuvant arthritis maximum clinical score: scale 0-16
DTH reaction [2] = assay: Adoptively transferred DTH to OX: ear swelling and 51Cr I-LNC migration to the ear; type: in vivo, mice; conditions: for DTH ear swelling (FIG. 6 left): I-LNC transferred intravenously, 24 h
Experimental: I-LNC were obtained from OX sensitized mice (groups A-C) and naive LNC from unsensitized mice (group D). The LNC were transferred intravenously to naive recipients that were treated (groups B-C) or untreated (groups A,D) with heparin (5 μg or 20 μg) injected 18 h and 1 h prior to cell transfer and 20 h after cell transfer. DTH ear swelling was elicited by OX at the time of cell transfer and measured 24 h later.
Right: Heparin inhibits cell migration to DTH challenge site. The experiment was done as described in FIG. 6 (left), except that I-LNC were radiolabeled with ^51 Cr prior to cell transfer into naive recipient mice. The accumulation of I-LNC in the OX challenged ears is indicated as the ^51 Cr (cpm/ear).
Mice were sensitized to 4-ethoxymethylene-2-phenyl oxazolone (OX) by painting their skins twice at 5 day intervals with about 0.1 ml of 3% OX in a vehicle of 4:1 acetone:olive oil (by volume). Their immunized draining lymph node cells (I-LNC) were then transfered (5×10^7) to recipient mice intravenously. The ability of the I-LNC to reach the site of antigen and produce a DTH reaction was assayed by challenging the recipient mice 1 hr after I-LNC transfer with 0.02 ml of 0.5% OX painted on the ear. DTH was ascertained by measuring the thickness of the ears 24 hrs later with an engineers micrometer.
The ability of the transfered I-LNC to reach the ears was tested by labeling the I-LNC before transfer with radioactive ^51 Cr (10^7 cells/ml incubated with 0.1 mCi ^51 Cr sodium chromate and washed) and measuring the amount cpm reaching the ears at the time of DTH.

heparanase = assay: Heparanase activity of I-LNC from heparin-treated OX-immunized mice; conditions: 5 μg per injection in vivo, I-LNC incubated 48 h with labeled ECM
Experimental: Mice were immunized with OX on days 0 and 5. Some of the mice were treated with heparin (5 μg or 25 μg per injection) 18 h before and 2, 10 and 20 h after the day 5 immunization with OX. On day 6, the I-LNC were removed and tested for heparanase activity by incubation for 48 h with labeled ECM. Heparan sulfate degradation products are shown for I-LNC from the following groups of mice: No heparin; 25 μg heparin X; 5 μg heparin-0. The LNC of control mice not immunized to OX had no heparanase activity (not shown).
To learn if these effects were associated with inhibition of endogenous heparanase, we treated mice with high (25 μg) or low (5 μg) doses of heparin, sensitized them to OX and tested their I-LNC for heparanase activity in vitro. […] Thus, treatment with 5 μg of heparin in vivo caused a substantial decrease of enzyme activity in sensitized lymphocytes.

DTH reaction [3] = assay: In situ DTH: I-LNC injected directly into the ears; type: in vivo, mice; conditions: heparin 5 u.g, I-LNC intradermally into ears, 24 h
Experimental: If inhibition of heparanase and heparanase-dependent traffic is the major mechanism by which low dose heparin suppresses DTH, then one might be able to bypass the inhibition of DTH by bypassing the need for vascular traffic of sensitized T lymphocytes. Accordingly we treated recipient mice with an inhibitory dose (5 μg) of heparin, and then injected the donor I-LNC directly into the ears, rather than intravenously. Table 7 illustrates that putting the sensitized lymphocytes in situ bypassed the inhibitory effect on the DTH of 5 μg of heparin. Thus low dose heparin treatment appeared to inhibit DTH only when the DTH-mediat lymphocytes had to make their way to the site of the antigen by way of the circulation.
I-LNC were obtained from BALB/c mice sensitized to OX 5 days earlier. The I-LNC were centrifuged, resuspended in RPMI medium and injected intradermally (3×10^6 cells/20 μ/l) into the dorsal surface of the ears of naive recipient mice. The ears were challenged with OX immediately after cell transfer. The magnitude of DTH ear swelling was determined 24 h later.

[4] = Partial thromboplastin time in human volunteers; type: in vivo; conditions: 3 mg (500 units) per day
Experimental: The effective dose of heparin, 3 mg (500 units) per day, was computed from the optimal dose per weight in mice and rats and corrected for surface area. […] (not shown).

rheumatoid arthritis = assay: Treatment of patients with rheumatoid arthritis; type: in vivo, human; conditions: about 300-500 units daily for 1 month, three patients
Text: As DTH reactions to self antigens are involved in autoimmune diseases, we have begun to test low dose heparin (about 300-500 units daily) in patients with rheumatoid arthritis.

[5] = rat, in vivo, 10 mg/kg
renal allograft = conditions: subanticoagulant s.c. doses, 5000 U daily; cited from earlier work
adjuvant arthritis [6] = conditions: 1000 U/rat; cited from earlier work
lymphocytes = conditions: 17-35 mg/kg/rat; cited from earlier work
[7] = 0.001 mg s.c. once daily for 5 days from day 9
[8] = 0.005 mg s.c. once daily for 5 days from day 9
[9] = 0.01 mg s.c. once daily for 5 days from day 9
[10] = 0.02 mg s.c. once daily for 5 days from day 9

## heparin
Skin allografts
  Maximal survival of skin allograft: 32 days
Adjuvant arthritis [1]; [7]
  Adjuvant arthritis duration: 20 days
  Adjuvant arthritis maximum clinical score: 6
Adjuvant arthritis [1]; [8]
  Adjuvant arthritis duration: 16 days
  Adjuvant arthritis maximum clinical score: 4
Adjuvant arthritis [1]; [9]
  Adjuvant arthritis duration: 15 days
  Adjuvant arthritis maximum clinical score: 5
Adjuvant arthritis [1]; [10]
  Adjuvant arthritis duration: 8 days
  Adjuvant arthritis maximum clinical score: 2
Adjuvant arthritis [1]; 0.04 mg s.c. once daily for 5 days from day 9, dose 0: >20
  Adjuvant arthritis duration: > 20 days
Adjuvant arthritis [1]; 0.04 mg s.c. once daily for 5 days from day 9, dose 0: 10
  Adjuvant arthritis maximum clinical score: 10
Adjuvant arthritis [1]; rat, in vivo
  Inhibition of arthritis: yes
Adjuvant arthritis [1]; rat, in vivo, sc
  Arthritis score (day 60): 0
DTH reaction [2]; 5 μg per injection
  Accumulation of 51Cr I-LNC in OX challenged ears (cpm/ear, FIG. 6 right): decreased cpm
  DTH ear swelling (FIG. 6 left): decreased ear swelling
DTH reaction [2]; 20 μg per injection
  Accumulation of 51Cr I-LNC in OX challenged ears (cpm/ear, FIG. 6 right): did not inhibit
  DTH ear swelling (FIG. 6 left): did not inhibit
heparanase
  Heparanase activity of I-LNC (FIG. 7): lacked heparanase activity
DTH reaction [3]; OX challenge no, no heparin 9 ± 1.0
  Ear swelling: 8 ± 1.0 ×10^-4 inch
DTH reaction [3]; OX challenge yes, no heparin 22 ± 3.4
  Ear swelling: 20.4 ± 1.6 ×10^-4 inch
[4]
  Partial thromboplastin time: no change in the partial thromboplastin time
Rheumatoid arthritis
  Clinical improvement of severe rheumatoid arthritis: all 3 were improved
[5]
  Anti-coagulant effect (prothrombin time): increase in the prothrombin time
Renal allograft
  Early renal allograft function and graft survival: no effect on early graft function or graft survival
Adjuvant arthritis [6]
  Severity of rat adjuvant arthritis: enhanced the severity of the rat adjuvant arthritis
lymphocytes
  Emigration of lymphocytes from the circulation: inhibit the emigration of lymphocytes from the circulation

— patent US5206223A, “Method for inhibiting heparanase activity” (Yeda Research and Development Co. Ltd., priority 1986, dated 1993)
